Assay results reported in patent US6545043B1 (priority 1997, dated 2003).
In brackets after ≈: the same amount, converted by molar mass. Several values for one entry are separate records, joined by “and”; a condition that tells them apart may be missing. Equal values may be shown once. Entries after “also recorded” stand apart in the source; their conditions may differ. Read-outs that look alike come from different tables or passages of the source.

What was measured:
[1] = system: adult house fly (Musca domestica); assay: whole plant or invertebrate; details: topical, 24 h, read-out: Percentage mortality at 24 h
[2] = system: brine shrimp (Artemia franciscana); assay: whole plant or invertebrate
[3] = system: yellow fever mosquito (Aedes aegypti) larvae; assay: whole plant or invertebrate; details: 24 h, read-out: % mortality at 1 ppm
[4] = system: brine shrimp (Artemia franciscana); details: in vivo
[5] = system: root-knot nematode (RKN) (Meloidogyne incognita) eggs; details: in vivo
[6] = system: lesser grain borer (Rhizopertha dominica); details: in vivo
[7] = system: root-knot nematode (RKN) (Meloidogyne incognita) eggs; details: in vivo; remark: listed apart in the source
[8] = system: adult house fly (Musca domestica); details: in vivo
[9] = system: adult house fly (Musca domestica); details: in vivo; remark: listed apart in the source
[10] = system: soil bacteria
[11] = system: weed seeds in soil; details: in vivo
[12] = system: house fly larvae (M. domestica); details: in vivo; cited from earlier work
[13] = system: Bean weevil, Acanthoscelides obtectus; details: in vivo; cited from earlier work
[14] = system: Saw-toothed grain weevil, Oryzaephilus surinamensis; details: in vivo; cited from earlier work
[15] = system: Confused flour beetle, Tribolium confusum; details: in vivo; cited from earlier work
[16] = system: Granary weevil, Sitophilus granarius; details: in vivo; cited from earlier work
[17] = system: Drugstore beetle, Stegobium paniceum; details: in vivo; cited from earlier work
[18] = in vivo; cited from earlier work
[19] = system: soybean cyst nematode (SCN) (Heterodera glycines) eggs; details: in vivo
[20] = system: soil microbial activity
[21] = system: five stored products pests (granary weevil, drugstore beetle, confused flour beetle, bean weevil, saw-toothed grain beetle); details: in vivo; cited from earlier work
[22] = 24 h, read-out: % Mortality at 1 ppm

For `C=CC1CNC(=S)O1` (centres unmarked) [Goitrin, goitrin], the mortality at 1 µg/fly [1] was 5% and the mortality at 100 µg/fly [1] was 5%.

For `C=CCSC#N` [ATC, allyl thiocyanate], the mortality at 1 ppm [2, 22] was 47%, the mortality at 1 ppm [3] was 57% and the mortality at 101 µg/fly [1] was 35%. For the same compound, the “effectiveness as aquatic pesticide” value [4] was “very weak”.

With `N#CC(O)c1ccccc1` (centres unmarked) [mandelonitrile] the “percent hatch, highest in the 22-day period” value [5] was ≤ 29.7%.

With `C=CC(O)C#N` (centres unmarked) [CHP, 3-cyano-3-hydroxy-1-propene] the LC50 [6] was 0.37 µg/mL (≈ 4.45 µM), the “percent hatch, highest in the 22-day observation period” value [7] was ≤ 34.4% and the LC50 [8] was 0.15 µg/mL (≈ 1.81 µM). For the same compound, the “effectiveness as topical pesticide” value [9] was “relatively weak”, the mortality at 9.8 µg/fly [1] was 5% and the mortality at 98 µg/fly [1] was 100%. For the same compound, the “percent hatch, highest in the 22-day period” value [5] was ≤ 19%.

In the case of `CC(C)C(C)(O)C#N` (centres unmarked) [3-methylbutanone cyanohydrin], the LC50 [6] was >20 µg/mL and the LC50 [8] was >20 µg/mL.

For `C=CC(C#N)OC(C)=O` (centres unmarked) [CHP-Ace, CHP acetate], the LC50 [6] was 0.37 µg/mL, the Percent hatch [7] was 0.0% and 5.4% and 5.6% and 0.8% and 1.5% and 4.9% and 5.2% and 5.3% and the “percent hatch, highest in the 22-day observation period” value [7] was ≤ 5.6%. The LC50 [8] was 0.26 µg/mL, the “times less effective than dichlorvos” value [8] was “about 20 times” and the “Severity (bacteria and fungal colonies formed)” value [10] was “completely inhibited growth; also recorded: No bacteria or fungal colonies”. The “effect on post-emergent weeds (observation)” value [11] was “kill post-emergent weeds”, the mortality at 10 µg/fly [1] was 0% and the mortality at […] [1] was 100%. For the same compound, the “percent hatch, highest in the 22-day period” value [5] was ≤ 42.6%.

`CC(C)=CCCC(C)CC(=O)O` (centres unmarked) [citronellic acid, reference compound] gave a mortality at 1 ppm [2] of 40%, a mortality at 10 ppm [2] of 65% and a mortality at 100 ppm [2] of 100%. The mortality at 1 µg/fly [1] was 0%, the mortality at 10 µg/fly [1] was 91% and the mortality at 100 µg/fly [1] was 100%.

For `CC1(C)C(C=C(Cl)Cl)C1C(=O)OCc1cccc(Oc2ccccc2)c1` (centres unmarked) [permethrin], the mortality [12] is given as “roughly 98%”.

In the case of `C=CC#N` [acrylonitrile], the “LC50 for 6 h” value [13] is given as 1.1 µg/mL, the “LC50 for 6 h” value [14] is given as 0.8 µg/mL and the “LC50 for 6 h” value [15] is given as 3.0 µg/mL. The “LC50 for 6 h” value [16] was 2.0 µg/mL and the “LC50 for 6 h” value [17] was 1.7 µg/mL.

In the case of `CC(C)=CCCC(C)CC(O)C#N` (centres unmarked) [citronellyl cyanohydrin], the “effectiveness as topical pesticide” value [9] was “not active”, the mortality at 6 µg/fly [1] was 14% and the mortality at 50 µg/fly [1] was 10%.

For `CNC(=O)O/N=C/C(C)(C)SC` [Aldicarb], the “mammalian LD50” value [18] is listed as 1 mg/kg.

In the case of `N#CC1(O)C=CCCC1` (centres unmarked) [2-cyclohexen-1-one cyanohydrin], the LC50 [6] was >20 µg/mL and the LC50 [8] was >20 µg/mL.

In the case of `C=CC(C#N)OC(=O)CCCCCCCCC` (centres unmarked) [CHP decanoate], the mortality at 1 ppm [2] was 15%, the mortality at 10 ppm [2] was 95% and the mortality at 100 ppm [2] was 100%. The mortality at 1 µg/fly [1] was 0%, the mortality at 10 µg/fly [1] was ~50% and the mortality at 100 µg/fly [1] was 100%.

In the case of `C=CC(C#N)OC(=O)C(C)(C)C` (centres unmarked) [CHP-Piv, CHP pivalate], the LC50 [6] was 2.4 µg/mL (≈ 14.4 µM), the LC50 [8] was 1.37 µg/mL (≈ 8.19 µM) and the mortality at 9.9 µg/fly [1] was 0%. The mortality at 99 µg/fly [1] was 80%.

With `C=CCC#N` [AC, allyl cyanide] the LC50 [6] was 2.8 µg/mL (≈ 41.7 µM), the LC50 [8] was 3.66 µg/mL (≈ 54.6 µM) and the mortality at 1 ppm [2, 22] was 7%. The mortality at 1 ppm [3] was 3%, the mortality at 97 µg/fly [1] was 15% and the “effectiveness as aquatic pesticide” value [4] was “very weak”.

With `CC(C)=CCC/C(C)=C/C(O)C#N` (centres unmarked) [citryl cyanohydrin] the “Percentage mortality at 24 h” value [9] was 9%, the “effectiveness as topical pesticide” value [9] was “not active” and the mortality at 1 ppm [2] was 0%. For the same compound, the mortality at 10 ppm [2] was 0%, the mortality at 100 ppm [2] was 87% and the mortality at 1 µg/fly [1] was 8%.

“methyl ethyl ketone cyanohydrin [MEK-CNOH]” showed an LC50 [6] of 0.27 µg/mL and an LC50 [8] of 0.09 µg/mL.

With `C=CC(O)CC#N` (centres unmarked) [CHB, 1-cyano-2-hydroxy-3-butene] the “times less effective than dichlorvos” value [6] was “about 68 times”, the LC50 [8] was 6.2 µg/mL (≈ 63.8 µM) and the mortality at 1 ppm [2, 22] was 13%. For the same compound, the mortality at 1 ppm [3] was 17%, the mortality at 10.7 µg/fly [1] was 0% and the mortality at 107 µg/fly [1] was 55%. For the same compound, the “effectiveness as aquatic pesticide” value [4] was “very weak” and the “[…] HATCH” value [19] was −70% and −73%.

In the case of `CC=C(C)C(O)C#N` (centres unmarked) [2-methyl-2-butenal cyanohydrin], the LC50 [6] was >20 µg/mL and the LC50 [8] was >20 µg/mL.

In the case of `CBr` [methyl bromide], the “LC50 for 6 h” value [13] is given as 4.2 µg/mL, the “LC50 for 6 h” value [14] is given as 4.4 µg/mL and the “Severity of depression of microbial activity” value [20] is given as “Slightly Depressed; also recorded: severe depression; also recorded: Severely Depressed”. The “LC50 for 6 h” value [15] was 9.2 µg/mL, the “LC50 values, range over five stored products pests” value [21] was 4.2 to 9.2 µg/mL and the “LC50 for 6 h” value [16] was 4.8 µg/mL. The “LC50 for 6 h” value [17] was 4.4 µg/mL.

In the case of `CCCC(C)C(O)C#N` (centres unmarked) [2-methylvaleraldehyde cyanohydrin], the LC50 [6] was >20 µg/mL and the LC50 [8] was >20 µg/mL.

For `COP(=O)(OC)OC=C(Cl)Cl` [dichlorvos, reference compound], the LC50 [6] was 0.29 µg/mL (≈ 1.31 µM) and the mortality at 1 µg/fly [1] was 95%.

In the case of `CCC(C)C(O)C#N` (centres unmarked) [2-methylbutyraldehyde cyanohydrin], the LC50 [6] was >20 µg/mL and the LC50 [8] was >20 µg/mL.

Work on `C=C(C)[C@H]1Cc2c(ccc3c2O[C@@H]2COc4cc(OC)c(OC)cc4[C@@H]2C3=O)O1` [rotenone, reference compound] yielded a mortality at 1 ppm [2] of 100%.

For `C=CC(C#N)OC(=O)/C=C/c1ccccc1` (centres unmarked) [CHP cinnamate], the mortality at 1 ppm [2] was 95%, the mortality at 10 ppm [2] was 100% and the mortality at 100 ppm [2] was 100%. It also gave a mortality at 1 µg/fly [1] of 0%, a mortality at 10 µg/fly [1] of ~50% and a mortality at 100 µg/fly [1] of 87%. For the same compound, the “effectiveness as aquatic pesticide” value [4] was “moderately toxic”.

With `CC(C)(O)C#N` [DMK-CNOH, dimethyl ketone cyanohydrin] the LC50 [6] was 0.25 µg/mL (≈ 2.94 µM) and the LC50 [8] was <0.07 µg/mL.

In the case of `C1CO1` [ethylene oxide], the “LC50 for 6 h” value [13] is listed as 10.5 µg/mL, the “LC50 for 6 h” value [14] is listed as 4.0 µg/mL and the “LC50 for 6 h” value [15] is listed as 27.5 µg/mL. The “LC50 for 6 h” value [16] was 13.5 µg/mL and the “LC50 for 6 h” value [17] was 9.0 µg/mL.

In the case of `O=C(O)C=Cc1ccccc1` [cinnamic acid, reference compound], the “effectiveness as topical pesticide” value [9] was “not an effective biopesticide”, the mortality at 1 ppm [2] was 30% and the mortality at 10 ppm [2] was 45%. It also gave a mortality at 100 ppm [2] of 100%, a mortality at 1 µg/fly [1] of 0% and a mortality at 10 µg/fly [1] of 0%. For the same compound, the mortality at 100 µg/fly [1] was 0%.

In the case of `S=C=S` [carbon disulfide], the “LC50 for 6 h” value [13] is listed as 29.0 µg/mL, the “LC50 for 6 h” value [14] is listed as 40.0 µg/mL and the “LC50 for 6 h” value [15] is listed as 75.0 µg/mL. The “LC50 for 6 h” value [16] was 43.0 µg/mL and the “LC50 for 6 h” value [17] was 42.0 µg/mL.

For `N#CC(O)/C=C/c1ccccc1` (centres unmarked) [cinnamyl cyanohydrin], the “effectiveness as topical pesticide” value [9] was “relatively weak”, the mortality at 1 ppm [2] was 25% and the mortality at 10 ppm [2] was 15%. The mortality at 100 ppm [2] was 100%, the mortality at 6 µg/fly [1] was 9% and the mortality at 50 µg/fly [1] was 100%.

`C=CCN=C=S` [AITC, allyl isothiocyanate] gave an LC50 [6] of 1.57 µg/mL (≈ 15.8 µM), an LC50 [8] of 0.13 µg/mL (≈ 1.31 µM) and a mortality at 1 ppm [2, 22] of 97%. The mortality at 1 ppm [3] was 83% and the mortality at 99 µg/fly [1] was 45%.

For `C=CC(C#N)OC(=O)CC` (centres unmarked) [CHP-Pro, CHP propionate], the LC50 [6] was 0.70 µg/mL (≈ 5.03 µM), the “times less effective than dichlorvos” value [6] was “about 2.5 times” and the LC50 [8] was 0.66 µg/mL (≈ 4.74 µM). The “times less effective than dichlorvos” value [8] was “about 60 times”, the mortality at 9.7 µg/fly [1] was 0% and the mortality at 97 µg/fly [1] was 100%.

With `N#CC(O)c1ccccc1[N+](=O)[O-]` (centres unmarked) [2-nitromandelonitrile cyanohydrin] the LC50 [6] was >20 µg/mL and the LC50 [8] was >20 µg/mL.
